Assay results as given in patent publication US20240366648A1, “NAD-AUGMENTATION THERAPY FOR PARKINSON'S DISEASE” (Vestlandets Innovasjonsselskap AS (VIS), priority 2021, published 2024).

Assays:
[1] = system: healthy individuals; details: cited from earlier work
[2] = system: cerebral metabolism; experiment: FDG-PET metabolic brain network analysis (NRRP/PDRP), phase I trial; assay type: in vivo, human
Method: PET-MRI imaging was performed with a 3T Siemens Biograph mMR scanner, software version VE11P-SPO3. Subjects were administered 200 MBq of 18F Fluorodeoxyglucose (FDG) before being positioned in the scanner. After 31P-MRS spectra had been acquired, an 8-channel Siemens mMR Head coil was used for further MR imaging, which was performed simultaneously with FDG PET. In all subjects, PET acquisition began 25 to 30 minutes after the injection of FDG and lasted 30 minutes. The resulting emission data were reconstructed using Siemens HD-PET algorithm with Siemens HiRes Brain MRAC, with voxel size of 2.3×2.3×5.0 mm^3. PET images were anonymized and archived as DICOM files with a matrix size of 344×344×127 and an isotropic voxel size of 2.09×2.09×2.03 mm^3.
FDG-PET scans were transferred electronically to the Center for Neurosciences at The Feinstein Institutes for Medical Research (Manhasset, NY, USA) and analyzed using automated computing pipelines implemented in MATLAB 7.5 (MathWorks, Natick, MA) using in-house Scan Analysis and Visualization (ScAnVP) software (available at http://feinsteinneuroscience.orq). Images were first pre-processed using Statistical Parametric Mapping (SPM8) software (http://fil.ion.ucl.ac.uk/spm; Wellcome Centre for Human Neuroimaging, London, UK). Of the 30 participants, the baseline scan of one NR subject was excluded on technical grounds. In the remaining subjects, FDG-PET scans acquired at visit 1 and visit 2 were aligned to produce a mean image, which was spatially normalized in standard Montreal Neurological Institute (MNI) anatomic space along with the individual scans from each time point. The normalized images were then smoothed with a 10-mm Gaussian filter in three dimensions to enhance the signal to noise ratio.
For the PET-analyses, the subjects in the NR group were classified based on their cerebral NAD-response, measured by 31P-MRS. Subjects showing increased cerebral NAD levels at visit 2 were termed “MRS-responders,” whereas subjects showing no increase in cerebral NAD were termed “MRS non-responders”.
To identify an NR-related metabolic pattern (NRRP), we analyzed paired metabolic scan data from the 10 MRS responders in the NR group (ATP-beta; NAD-total; ATP-alpha; ATP-gamma; PCr (Phosphocreatine); MP (membrane phospholipids); GPC (glycerophosphocholine); GPE (glycerophosphoethanolamine); Pi (inorganic phosphate); Pc (phosphocholine); PE (phosphoethanolamine); Total NAD/PCr; Total NAD/ATP-alpha) using ordinal trends/canonical variates analysis (OrT/CVA), a supervised form of principal component analysis (PCA) (Habeck C, Krakauer J W, Ghez C, Sackeim H A, Eidelberg D, Stern Y et al. A new approach to spatial covariance modeling of functional brain imaging data: ordinal trend analysis. Neural computation 2005; 17: 1602-1645).
This multivariate approach is designed to detect and quantify regional covariance patterns (i.e., metabolic networks) for which expression values (i.e., subject scores) increase or decrease with treatment in all or most of the subjects (Niethammer M, Tang C C, Vo A, Nguyen N, Spetsieris P, Dhawan V et al. Gene therapy reduces Parkinson's disease symptoms by reorganizing functional brain connectivity. Science translational medicine 2018; 10; Ko J H, Feigin A, Mattis P J, Tang C C, Ma Y, Dhawan V et al. Network modulation following sham surgery in Parkinson's disease. The Journal of clinical investigation 2014; 124: 3656-3666). […] Likewise, the reliability of the voxel loadings (i.e., region weights) on the resulting network topography was assessed using bootstrap resampling procedures (Mure H, Hirano S, Tang C C, Isaias I U, Antonini A, Ma Y et al. Parkinson's disease tremor—related metabolic network: characterization, progression, and treatment effects. Neuroimage 2011; 54: 1244-1253; Habeck C, Stern Y. Multivariate data analysis for neuroimaging data: overview and application to Alzheimer's disease. Cell biochemistry and biophysics 2010; 58: 53-67). […]

NC(=O)c1ccc[n+]([C@@H]2O[C@H](CO)[C@@H](O)[C@H]2O)c1 [NR, nicotinamide riboside]
oral bioavailability in humans ([1]; Trammell et al. 2016): good oral bioavailability
total levels of NAD and related metabolites in blood and muscle ([1]; healthy individuals, oral 1000 mg NR daily): substantially elevates
NR-related metabolic pattern (NRRP) topography ([2]; 10 MRS responders, OrT/CVA, PC1): bilateral metabolic reductions in the caudate and putamen, extending into the adjacent globus pallidus, and in the thalamus
Zmax, reduced metabolic activity as part of the NRRP network ([2]; Anterior Cingulate (left), BA 32, MNI −4,44,18): 2.2
Zmax, reduced metabolic activity as part of the NRRP network ([2]; Anterior Cingulate (right), BA 24, MNI 4,8,48): 2.3
Zmax, reduced metabolic activity as part of the NRRP network ([2]; Anterior Cingulate (right), BA 32, MNI 4,46,−8): 2.6
Zmax, reduced metabolic activity as part of the NRRP network ([2]; Lentiform Nucleus (left), Putamen, MNI −20,10,−8): 3.5
Zmax, reduced metabolic activity as part of the NRRP network ([2]; Lentiform Nucleus (left), Putamen, MNI −28,−2,−2): 3.3
Zmax, reduced metabolic activity as part of the NRRP network ([2]; Lentiform Nucleus (right), Putamen, MNI 22,10,−8): 3.9
subjects with increased NRRP expression ([2]; MRS responders, p=0.018 permutation test): 8 of 10
Zmax, reduced metabolic activity as part of the NRRP network ([2]; Middle Frontal Gyrus (left), BA 8, MNI −26,30,42): 1.9
ordinal trend in NRRP expression ([2]; NR group as a whole, p=0.027 permutation test): remained significant
correlation (r) of changes in NRRP expression with changes in UPDRS motor ratings, after excluding one data point ([2]; NR group, excluding greatest increase in UPDRS motor score, p=0.048): −0.556
correlation (r) of changes in NRRP expression with changes in UPDRS motor ratings ([2]; NR group, p=0.026): −0.59
correlation of PDRP changes with clinical outcome ([2]; NR group, p=0.73): no correlation
Zmax, reduced metabolic activity as part of the NRRP network ([2]; Posterior Cingulate (bilateral), BA 31, MNI 0,−30,36): 3.5
Zmax, reduced metabolic activity as part of the NRRP network ([2]; Precuneus (left), BA 7, MNI −6,−72,40): 2.6
Zmax, reduced metabolic activity as part of the NRRP network ([2]; Prefrontal Cortex (right), BA 9, MNI 44,16,30): 3.0
Zmax, reduced metabolic activity as part of the NRRP network ([2]; Superior Frontal Gyrus (left), BA 9, MNI −32,44,28): 2.5
Zmax, reduced metabolic activity as part of the NRRP network ([2]; Superior Frontal Gyrus (left), BA 10, MNI −28,56,6): 2.5
Zmax, reduced metabolic activity as part of the NRRP network ([2]; Thalamus (left), Anterior, MNI −10,−22,4): 2.5
Zmax, reduced metabolic activity as part of the NRRP network ([2]; Thalamus (right), Medial Dorsal, MNI 8,−18,4): 3.0
